Measured values: patent US5700640A, “Inducers of gamma globin gene expression and screening assays therefor” (priority 1994, dated 1997)

Columns and labels:
[1] = Blau et al. 1993; cited from earlier work
gamma globin mRNA = assay: Northern hybridization of gamma globin mRNA in treated K562 cells; assay type: cell-based, human
Method: Total RNA was prepared by the method of McDonald as described in Sambrook et al., (1989) Molecular Cloning: A Laboratory Manual, 2nd Edition, Cold Spring Harbor Laboratory Press. 10 μg total cellular RNA was electrophoresed through agarose gels containing 3.3% formaldehyde. The electrophoresed RNA was then transferred to nitrocellulose filters by standard methods. Each sample was hybridized to specific probes for gamma globin mRNA, mRNA encoding the erythroid specific transcription factor GATA-1 and 28S ribosomal RNA (which was used for standardization). The gamma globin and GATA-1 probes were cDNA probes, which were labeled with ^32 p by random priming reactions (Promega Biotech Inc.). The 28S ribosomal RNA probe was an oligonucleotide having the sequence 5' […] 3' (SEQ ID NO: 3), which was labeled by 5' end labeling using T4 polynucleotide kinase (New England Biolabs). Nucleotide probes were hybridized to the RNA nitrocellulose filters according to standard techniques. After hybridization, radioactive signals on the nitrocellulose filters were directly quantified using a BioRad GS-250 Molecular Imager. mRNA hybridization intensities were normalized to the amount of 28S ribosomal RNA present for each sample.

GATA-1 mRNA = GATA-1 mRNA level (Northern) with BA and/or cycloheximide in gamma3'PE cells; assay type: cell-based, human; conditions: BA 5 mM, 5 hr
Method: To determine if BA exerts its inductive effects by acting directly on pre-existing proteins in the cells, the effect of the protein synthesis inhibitor cycloheximide (CHX) on BA-induced expression of RNA was analyzed. In these experiments, gamma3'PE cells were incubated with 150 μg/ml CHX for 2 hr prior to addition of BA (5 mM). Control cells were incubated with either CHX or BA alone or were mock incubated. Cells were harvested 5 hr later for preparation of total RNA. RNA samples were electrophoresed, transferred to nitrocellulose and hybridized to a ^32 P-labeled luciferase cDNA probe as described in Example 4. The radioactive signals on the filter were quantitated using a BioRad GS-250 Molecular Imager and mRNA levels were normalized to values obtained for mock treated samples. The results are presented graphically in FIG. 12, Panel A. BA treatment alone increased gamma globin-regulated luciferase mRNA by approximately 6 fold.
The results, normalized to mock treated samples, are depicted graphically in FIG. 12, Panel B. In contrast to luciferase mRNA which was induced by BA treatment, the level of GATA-1 RNA decreases about 3 fold in response to BA treatment.

[2] = tested on: gamma globin gene expression; conditions: cited from earlier work
in vitro = conditions: human, k562 cells
Method: (§1) To normalize luciferase units to the number of viable cells, parallel cell viability assays were performed using 3-(4,5-dimethylthiazol-2-yl)-2,5-diphenyltetrazolium bromide (MTT) (Vistica, D. T. et al. (1991) Cancer Res. 51:2515-2520). Transfected K562 cells were plated in 96 well dishes at a density of 2×10^4 and 2×10^3 cells per 100 μl per well. 24 hours later, the cells were treated with test compounds (at a final concentration of 5 mM). At 24, 50, 74 or 122 hours after treatment, 50 μl of 3 mg/ml MTT in PBS was added to each well. The 96 well plate was then incubated at 37° C. for 4 to 5 hours. The formazan derivatives formed from tetrazolium by viable cells were solubilized by the addition of 50 μl/well 25% SDS, pH 3, overnight at 37° C. The plates were than read at a wavelength of 550 nm.

K562 cells = assay: in vitro
Method: as §1

In the case of `CCCC(=O)O` [BA, butyric acid], the “toxicity of high dosages” value [1] is given as “associated with toxicity, in particular neurologic toxicity”, the fold induction at 5000 µM (gamma globin mRNA; Homo sapiens, K562, 96 h, read-out: Fold Induction, gamma globin RNA) is given as 1.3 and the “Raw Value, gamma globin RNA” value (gamma globin mRNA; K562 cells, 5 mM, 96 hours) is given as 3.58 × 10^6. The “Normalized Value, gamma globin RNA” value (gamma globin mRNA; normalized to 28S ribosomal RNA, K562 cells, 5 mM, 96 hours) was 9.4 × 10^5, the “decrease in GATA-1 RNA level” value (GATA-1 mRNA) was “about 3 fold” and the “effect on gamma globin gene expression” value ([2]; in vitro and in vivo) was “increase gamma globin gene expression in vitro and in vivo”. For the same molecule, the “effect on fetal to adult hemoglobin switch” value ([2]; in vivo) was “delay the fetal to adult hemoglobin switch in vivo”, the cytotoxicity at 72 h, 5000 µM (in vitro) was roughly 100% and the viability at 122 h, 5000 µM (in vitro) was less than 30%. The “effect on cell viability within 24 hours (FIG. 7)” value (K562 cells) was “negative effect on cell viability within 24 hours after treatment”.
